Measurements published in ChEMBL document CHEMBL1201862, “PubChem BioAssay data set” (2004).
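Dose response: 5 concentrations. Exposure: 48 h. Format: 96-well plates. Endpoint: linear interpolation; highest concentration if not reached. GI50 marks 50% less growth.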 Calls of active or inactive are those of the source. Cut-off read from the data, not from the text of the source: active = GI50 up to about 1.1 µM and inactive = higher.

Key:
Assay in all cases: DTP human tumour cell line panel, 48 h
[1] = tested on: ACHN
[2] = tested on: HCT-116
[3] = tested on: HOP-62
[4] = tested on: HOP-92
[5] = tested on: Hs-578T
[6] = tested on: IGROV-1
[7] = tested on: OVCAR-8
[8] = tested on: PC-3
[9] = tested on: RPMI-8226
[10] = tested on: RXF 393
[11] = tested on: SF-268
[12] = tested on: SF-295
[13] = tested on: SK-MEL-5
[14] = tested on: SK-OV-3
[15] = tested on: SN12C
[16] = tested on: SNB-19
[17] = tested on: TK-10
[18] = tested on: UACC-257
[19] = tested on: A498

Measured: GI50

CC1(C)[N+]([O-])=[N+]([O-])C1(Br)c1ccccc1 (stereo not given)
inactive: [1] > 100 µM | [2] > 100 µM | [3] > 100 µM | [4] > 100 µM | [5] > 100 µM | [6] > 100 µM | [7] > 100 µM | [8] > 100 µM | [9] 42.7 µM | [10] 25.8 µM | [11] 65.3 µM | [12] 49.2 µM | [13] > 100 µM | [14] > 100 µM | [15] > 100 µM | [16] > 100 µM | [17] > 100 µM | [18] 54.8 µM

Clc1nc2c(N3CCCC3)nc(N3CCNCC3)nc2[nH]1
inactive: [1] 19.9 µM | [2] 16 µM | [3] 20 µM | [4] 16.6 µM | [5] > 100 µM | [6] 17.9 µM | [7] 16 µM | [8] 17.8 µM | [9] 21.3 µM | [10] 14.1 µM | [11] 19.2 µM | [12] 18.7 µM | [13] 15.1 µM | [14] 18.2 µM | [15] 18.6 µM | [16] 17.6 µM | [17] 57.5 µM | [18] 19.3 µM

O=C(O)c1cc(/C=C/c2cc(O)ccc2O)ccc1O
inactive: [1] > 10 µM | [5] > 10 µM | [7] > 10 µM | [8] > 10 µM | [11] > 10 µM | [12] > 10 µM | [15] > 10 µM | [16] > 10 µM | [17] > 10 µM | [18] > 10 µM

CC(=O)c1sc2c(c1OC(=O)c1ccco1)c(=O)n(-c1ccccc1)c(=S)n2-c1ccccc1
inactive: [2] 18.2 µM | [3] 25.1 µM | [4] 5.43 µM | [5] 2.28 µM | [6] 23.1 µM | [7] 30.3 µM | [8] 16.9 µM | [9] 4.89 µM | [10] 12.9 µM | [11] 23.2 µM | [12] 5.16 µM | [13] 5.81 µM | [14] 16 µM | [15] 26 µM | [16] 28.2 µM | [17] 31.8 µM | [18] 27.5 µM

CSC1C(=O)Nc2ccc3ccccc3c21 (stereo not given)
inactive: [1] 27.4 µM | [2] 15.7 µM | [3] 34.3 µM | [4] 16.3 µM | [5] 15.3 µM | [6] 16.6 µM | [7] 17.7 µM | [8] 16.3 µM | [9] 3.13 µM | [11] 17.4 µM | [12] > 100 µM | [13] 21.9 µM | [14] > 100 µM | [15] 20.6 µM | [16] 89.5 µM | [17] 16.8 µM | [18] 19 µM

CN1CCN(CN2C(=O)C3C4C=CC(C3C2=O)C2C(=O)N(CN3CCN(C)CC3)C(=O)C42)CC1 (stereo not given)
inactive: [1] > 64.4 µM | [2] 36.6 µM | [3] > 54.1 µM | [4] > 100 µM | [5] > 100 µM | [6] 50.6 µM | [7] > 100 µM | [8] > 84.5 µM | [9] 20.7 µM | [10] 27 µM | [11] > 62.1 µM | [12] > 82.4 µM | [13] 5.55 µM | [14] > 100 µM | [15] > 58.9 µM | [16] > 63.1 µM | [17] > 70.3 µM | [18] > 75.2 µM

O=C(Cc1ccccc1)NN1C(=O)/C(=C\c2ccc([N+](=O)[O-])cc2)S/C1=N\c1ccccc1
inactive: [19] > 100 µM | [1] > 100 µM | [2] > 100 µM | [3] > 100 µM | [4] 68.9 µM | [5] > 100 µM | [6] > 100 µM | [7] 77.6 µM | [9] > 100 µM | [10] > 100 µM | [11] > 100 µM | [12] > 100 µM | [13] > 100 µM | [14] > 100 µM | [15] > 100 µM | [16] > 100 µM | [17] > 100 µM | [18] > 100 µM

COCC[N+](CCNC(=O)c1cccc2c(N)c3cccc(C)c3nc12)(CCOC)Cc1ccc([N+](=O)[O-])cc1
inactive: [1] 32.4 µM | [2] 17.2 µM | [3] 31.8 µM | [4] 29 µM | [5] 10.8 µM | [6] 11.1 µM | [7] 26.6 µM | [8] 9.53 µM | [9] 5.6 µM | [11] 12.4 µM | [12] 28.4 µM | [13] 4.53 µM | [15] 32.9 µM | [16] 40.4 µM | [17] 67.3 µM | [18] 16.9 µM

Cc1c(C#N)c2nc3ccccc3n2c(=O)/c1=C/Nc1ccc(Cl)cc1
inactive: [19] 15.9 µM | [1] 10.6 µM | [2] 16.6 µM | [3] 12.9 µM | [4] 20.1 µM | [5] 10.8 µM | [6] 36.1 µM | [7] 51.3 µM | [9] 37.8 µM | [10] 11.7 µM | [11] 22.9 µM | [12] 7.71 µM | [13] 19.4 µM | [14] 14.1 µM | [15] 93.3 µM | [16] 11 µM | [17] 14.2 µM | [18] > 100 µM
